Patent US12612424B2, “HPK1 inhibitors and uses thereof” (Regor Pharmaceuticals, Inc., priority 2019, dated 2026)

Experiments:
HPK1 = HPK1 (Homo sapiens, UniProt Q92918); assay: HPK1 biochemical assay (ADP-GLO Kinase Assay); settings: B*: testing performed in a first testing facility; read-out: HPK1 IC50 (nM) Relative, B*
In short: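 HPK1 (0.6 ng/μL final) activity was followed with MBP substrate and 10 μM ATP in Tris pH 7.5/MgCl2/BSA/DTT buffer, measured by ADP-Glo luminescence. Compounds were tested as 3-fold dilutions from 10 μM. IC50 came from a three-parameter logistic fit, with inhibition normalised to high/low controls.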

JAK3 = molecular target: T1, JAK3 (Homo sapiens, UniProt P52333); assay: JAK3 biochemical assay (ADP-GLO Kinase Assay); settings: for IC50: B*: testing performed in a first testing facility, read-out: JAK3 IC50 (nM) Relative, B*; for JAKs/HPK1 IC50 Ratio, B*: ratio of JAK3 IC50 to HPK1 IC50, first testing facility
T1 construct: purchased Thermo fisher PV3855
T1 sequence (P52333 781-1124 limits assumed): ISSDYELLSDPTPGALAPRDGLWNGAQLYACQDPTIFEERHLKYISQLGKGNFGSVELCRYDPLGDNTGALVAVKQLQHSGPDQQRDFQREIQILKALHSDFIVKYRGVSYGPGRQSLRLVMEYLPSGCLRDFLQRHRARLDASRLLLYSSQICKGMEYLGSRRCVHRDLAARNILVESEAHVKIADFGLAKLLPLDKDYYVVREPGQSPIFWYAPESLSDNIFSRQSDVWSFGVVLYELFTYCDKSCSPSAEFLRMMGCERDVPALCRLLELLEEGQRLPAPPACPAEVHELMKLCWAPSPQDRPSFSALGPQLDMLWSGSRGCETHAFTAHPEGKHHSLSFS
In short: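 Human JAK3 (0.78 ng) with 0.2 μg/μL Poly(E4Y1) and 4 μM ATP in 40 mM Tris pH 7.5, 20 mM MgCl2, 0.1 mg/ml BSA, 50 μM DTT, 1% DMSO; 60 min at 25 °C. ADP formed read by ADP-Glo luminescence. 10-dose 3-fold series from 10 μM; IC50 by three-parameter logistic fit.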

HPK1, sequence (Q92918 whole entry): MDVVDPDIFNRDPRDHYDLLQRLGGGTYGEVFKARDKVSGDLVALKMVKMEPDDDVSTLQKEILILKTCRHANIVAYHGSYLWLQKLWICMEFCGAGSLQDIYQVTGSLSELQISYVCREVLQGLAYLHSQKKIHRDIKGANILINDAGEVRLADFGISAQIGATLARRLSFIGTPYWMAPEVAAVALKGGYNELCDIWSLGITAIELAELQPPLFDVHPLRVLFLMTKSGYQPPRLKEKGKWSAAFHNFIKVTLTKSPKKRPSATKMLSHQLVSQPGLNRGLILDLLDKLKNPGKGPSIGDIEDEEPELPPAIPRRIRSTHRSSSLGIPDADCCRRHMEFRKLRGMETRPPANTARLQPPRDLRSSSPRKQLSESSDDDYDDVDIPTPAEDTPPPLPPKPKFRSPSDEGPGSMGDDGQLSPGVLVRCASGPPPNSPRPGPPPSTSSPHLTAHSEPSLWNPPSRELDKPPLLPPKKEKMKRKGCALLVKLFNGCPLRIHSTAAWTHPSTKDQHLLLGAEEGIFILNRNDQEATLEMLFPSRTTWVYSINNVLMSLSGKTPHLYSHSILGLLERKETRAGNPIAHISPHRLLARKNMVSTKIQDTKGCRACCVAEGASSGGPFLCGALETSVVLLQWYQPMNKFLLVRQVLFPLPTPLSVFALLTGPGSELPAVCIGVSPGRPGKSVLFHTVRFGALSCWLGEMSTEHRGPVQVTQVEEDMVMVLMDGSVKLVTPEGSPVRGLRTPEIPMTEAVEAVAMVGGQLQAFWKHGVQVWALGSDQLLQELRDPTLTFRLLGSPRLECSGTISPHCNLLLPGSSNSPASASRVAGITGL

Compound | IC50 (HPK1) [nM] | IC50 (JAK3) [nM] | JAKs/HPK1 IC50 Ratio, B* (JAK3)
COC(=O)C1(C)CN(c2nc(Nc3cc4c(cc3OC)CCN(C)C4)ncc2Cl)c2ccccc21 (stereo not drawn) [Example 116] | ≤ 100 | > 1000 | 890
COc1cc2c(cc1Nc1ncc(Cl)c(N3CC(C)(C(N)=O)c4ccccc43)n1)CN(C)CC2 (stereo not drawn) [Example 120, 1-(5-Chloro-2-((6-methoxy-2-methyl-1,2,3,4-tetrahydroisoquinolin-7-yl)amino)pyrimidin-4-yl)-3-methylindoline-3-carboxamide] | ≤ 100 | ≤ 100 | 120
COc1cc2c(cc1Nc1ncc(Cl)c(N3CC(C)(C#N)c4ccccc43)n1)CN(C)CC2 (stereo not drawn) [Example 121, 1-(5-Chloro-2-((6-methoxy-2-methyl-1,2,3,4-tetrahydroisoquinolin-7-yl)amino)pyrimidin-4-yl)-3-methylindoline-3-carbonitrile] | ≤ 100 | ≤ 100 | 50
CNC(=O)C1(C)CN(c2nc(Nc3cc4c(cc3OC)CCN(C)C4)ncc2Cl)c2ccccc21 (stereo not drawn) [Example 122] | ≤ 100 | ≤ 100 | 100
COc1cc2c(cc1Nc1ncc(Cl)c(N3CC(C)(CO)c4ccccc43)n1)CN(C)CC2 (stereo not drawn) [Example 123] | ≤ 100 | ≤ 100 | 60
COc1cc2c(cc1Nc1ncc(Cl)c(N3CC(C)(C(=O)O)c4cc(F)ccc43)n1)CN(C)CC2 (stereo not drawn) [Example 125] | ≤ 100 | ≤ 100 | 6
COc1cc2c(cc1Nc1ncc(Cl)c(N3CC(C)(C(=O)O)c4ccc(F)cc43)n1)CN(C)CC2 (stereo not drawn) [Example 126] | ≤ 100 | ≤ 100 | 9
COc1cc2c(cc1Nc1ncc(Cl)c(N3CC(CC(=O)O)c4ccccc43)n1)CN(C)CC2 (stereo not drawn) [Example 128] | ≤ 100 | 100 to 500 | 280
COc1cc2c(cc1Nc1ncc(Cl)c(-n3cc(CC(=O)O)c4ccccc43)n1)CN(C)CC2 [Example 129] | ≤ 100 | 500 to 1000 | 640

Next, values leading:

IC50 (HPK1) [nM] | IC50 (JAK3) [nM] | JAKs/HPK1 IC50 Ratio, B* (JAK3) | Compound
≤ 100 | > 1000 | 886 | COc1cc2c(cc1Nc1ncc(Cl)c(N3CC(C(=O)O)c4c(OC)cccc43)n1)CN(C)CC2 (stereo not drawn) [Example 108, 1-(5-Chloro-2-((6-methoxy-2-methyl-1,2,3,4-tetrahydroisoquinolin-7-yl)amino)pyrimidin-4-yl)-4-methoxyindoline-3-carboxylic acid]
≤ 100 | 500 to 1000 | 269 | COc1cc2c(cc1Nc1ncc(F)c(N3CC(C(=O)O)c4ccccc43)n1)CN(C)CC2 (stereo not drawn) [Example 109, 1-(5-Fluoro-2-((6-methoxy-2-methyl-1,2,3,4-tetrahydroisoquinolin-7-yl)amino)pyrimidin-4-yl)indoline-3-carboxylic acid]
≤ 100 | > 1000 | 477 | COc1cc2c(cc1Nc1ncc(C#N)c(N3CC(C(=O)O)c4ccccc43)n1)CN(C)CC2 (stereo not drawn) [Example 110, 1-(5-Cyano-2-((6-methoxy-2-methyl-1,2,3,4-tetrahydroisoquinolin-7-yl)amino)pyrimidin-4-yl)indoline-3-carboxylic acid]
≤ 100 | > 1000 | >3309 | COC(=O)C1CN(c2nc(Nc3cc4c(cc3OC)CCN(C)C4)ncc2C(F)F)c2ccccc21 (stereo not drawn) [Example 112]
≤ 100 | > 1000 | 293 | COc1cc2c(cc1Nc1ncc(Cl)c(-n3nc(C(=O)O)c4ccccc43)n1)CN(C)CC2 [Example 113]
≤ 100 | > 1000 | 1275 | COC(=O)C1CN(c2nc(Nc3cc4c(cc3OC)CCN(C)C4)ncc2Cl)c2ccccc21 (stereo not drawn) [Example 115, Methyl 1-(5-chloro-2-((6-methoxy-2-methyl-1,2,3,4-tetrahydroisoquinolin-7-yl)amino)pyrimidin-4-yl)indoline-3-carboxylate]
